How the values were obtained:
[1] = test system: mucin 13, occludin, and E-cadherin; test: Immunoblots of epithelial barrier proteins in post-ischemic intestinal homogenates (segment 7); parameters: species or system rat; details: ileum segment 7, two hour ex vivo ischemia
Procedure: Immunoblotting—To determine whether selected epithelial barrier proteins were degraded during ischemia, pre- and post-ischemic intestinal tissue homogenates (segment 7) were analyzed for relative levels of mucin 13, occludin, and E-cadherin.
Tissues were homogenized for immunoblot analysis in buffer (CelLytic, Sigma-Aldrich) with protease inhibitor cocktail (HALT, Thermo Scientific, 1:100 dilution) and centrifuged (1×10^4 g, 20 min). Protein concentration in supernatants was determined (BCA, ThermoScientific). To separate proteins by gel electrophoresis, 30 μg of protein/well were loaded in 8 or 12% resolving gels with 4% stacking gels and transferred to nitrocellulose membranes (Bio-Rad, Hercules, Calif.). Membranes were blocked for one hour with either 5% bovine serum albumin (BSA) or 5% nonfat milk in tris-buffered saline with 0.5% Tween-20 (TBS-T). Primary antibodies diluted in 1% BSA or 1% nonfat milk against mucin 13 (1:1000, extracellular domain, sc-66973 Santa Cruz Biotechnology, Santa Cruz, Calif.), E-cadherin (1:1000, intracellular domain, 33-4000, Invitrogen), occludin (1:1000, intracellular domain, 33-1500, Invitrogen), pancreatic trypsin (1:1000, sc-137077 Santa Cruz Biotechnology), or β-actin (1:1000, sc-130301, Santa Cruz Biotechnology) were incubated overnight at 4° C. After incubation, membranes were washed with TBS-T (3×, 10 min) before addition of goat anti-rabbit or rabbit anti-mouse secondary antibodies (Santa Cruz Biotechnology) diluted 1:1000 in TBS-T. Following secondary antibody incubation (60 min), the membranes were washed with TBS-T (3×) and developed.

hemorrhagic shock = test: Hemorrhagic shock with enteral/IV/IP treatments: intestine, plasma and lung injury (Example 2); assay type: in vivo, rat
Procedure: Adult male Sprague Dawley rats (mean±standard deviation (SD) body weight 340±60 g, N=64, Harlan, Indianapolis, Ind.) were allowed food and water ad libitum prior to surgery. Rats were administered general anesthesia (xylazine, 4 mg/kg; ketamine 75 mg/kg IM) and remained anesthetized throughout the experiment. At the termination of experiments, rats were euthanized by infusion of B-Euthanasia IV (120 mg/kg). The femoral artery and vein were cannulated. Systolic, diastolic, heart rate, and mean arterial pressure (MAP) were recorded throughout the procedure using LabChart (AD Instruments, Dunedin, New Zealand).
Hemorrhagic Shock (HS) with Removal of Luminal Contents—Animals were grouped into no-HS (No-HS), HS with intestinal luminal contents flushed (HS-F), and HS without intestinal flush (HS-NF). No-HS animals were immediately sacrificed for tissue collection following cannulation. All other animals were subject to laparotomy before the intestine was exposed and gross morphology was photographically recorded. Enteral treatments were administered to the intestine before returning to the peritoneal cavity (Table 1). IV/IP injections were delivered following the intestinal injections.
Following the intestinal preparations, the animals were heparinized to minimize clotting in catheters and in shed blood samples (1 U/mL of calculated blood volume i.v.; assuming 6 mL blood volume per 100 g total body weight) before onset of hemorrhage. MAP was reduced to 30 mmHg by withdrawal of blood through the venous catheter (0.4 mL/min) with a 5 mL syringe. The initial 1 mL of blood drawn was collected, centrifuged (1000 g, 5 min), and the plasma was immediately frozen at […] for further analysis. The arterial pressure was monitored and adjusted by withdrawal/return of blood over the 90-min ischemic period. At the end of ischemia, the shed blood was returned to the animals (0.5 mL/min) plus 1 mL of saline (to replace the 1 mL of blood collected before shock).
Gross morphology images of the intestine were captured at the end of the reperfusion period. Post-HS blood was collected through the arterial catheter, spun (1000 g, 5 min), and the plasma was immediately frozen at […]. The animals were then euthanized and lung and jejunum specimen were snap frozen for homogenization or embedded in optimum cutting temperature (O.C.T.) (Saukura, Leiden, the Netherlands) for histological sectioning. Jejunum was chosen for analysis, as more intestinal hemorrhage is typically seen there than in the ileum in models of HS.
After hemorrhagic shock, bronchoalveolar lavage fluid (BALF) was collected by inserting an 18 gauge blunt needle into the left main bronchus of the left lung. The lunch was photographed to assess gross morphological damage. The images were blindly assessed for macroscopic lung damage. Scoring was as follows: 0, no visible lung damage and pink in color; 1, mostly pink in color with some dark red lesions starting to form around the central part of the lung near the trachea; 2, some pink color with more lesions forming and spreading throughout the lung; 3, dark red lesions through the majority of the lung surface; 4, complete lung damage in all parts of the organ surface.
To collect BALF fluid, saline (˜2.0 ml/lavage) was injected and recovered three times before centrifugation (1000 g, 5 min). Following the third wash, the lung was injected with O.C.T., embedded, and frozen. The total volume of recovered BALF fluid was measured and the fraction of saline recovered versus the amount injected was used to normalize all measurements.
Intestinal Hemorrhage—Segments of jejunum were mechanically homogenized by weight (10 ml per 1 g; 18,000 g, 20 min; stored at −80° C.) in 0.5% hexadecyltrimethyl-ammonium bromide (HTAB) in PBS (pH 6.0). Any luminal content present in the segment was included in the weighing and homogenization. […]

intestinal villi = test: Morphological analysis of intestinal villi after ex vivo ischemia (Van Gieson/hematoxylin); parameters: species or system rat; details: for intestinal villi structure: jejunum and ileum after 2 hrs ex vivo ischemia
Procedure: After the two-hour ischemic incubation, intestinal pieces from segments 2 (jejunum) and 7 (ileum) were embedded in O.C.T. (Tissue Tek, Torrance, Calif.) and snap frozen in t-methyl butane in liquid nitrogen. Intestine samples from segments 2 and 7 (for protease analysis) and segment 7 (for immunoblots) were snap frozen and stored for subsequent homogenization. Morphological Analysis and TUNEL Labeling—Intestinal segments frozen in O.C.T. were cut into 5 μm sections. Sections were fixed using ice-cold methanol (8 min at −20° C.) and immediately washed four times in distilled water. Nuclei were stained by incubating sections in freshly mixed Weigert's Iron Hematoxylin A and B (Electron Microscopy Science, Hatfield, Pa.) (10 min) followed by rinsing thoroughly with water. Collagen fibers were labeled by incubating (2 min) in Van Gieson's Solution (Electron Microscopy Science). Prior to mounting, all slides were dehydrated (70, 95, 100% ethanol) and cleaned with xylene. After air-drying overnight, sections were mounted using Hard Set Mounting Media (Vector Laboratories, Burlingame, Calif.). Digital images were captured with a 20× objective (numerical aperture 0.5) and digitally montaged together after background subtraction. The separation of the mucosal epithelial layer was quantified for groups that had intact villi following the two hour ischemic period. Images were blinded and the distance between the mucosal epithelial layer and the lamina propria was measured over five lengths across a minimum of 6 villi.

Row | SMILES | mucin 13 levels (immunoblot) [1] | occludin levels (immunoblot) [1] | MPO activity of intestinal homogenates (hemorrhagic shock; after HS) | gross morphology of the intestine (microhemorrhages) (hemorrhagic shock; after HS) | lung VE-cadherin levels (hemorrhagic shock; after HS, immunoblot) | lung VEGFR-2 levels (hemorrhagic shock; after HS, immunoblot) | intestinal villi structure (intestinal villi) | E-cadherin levels (immunoblot) [1] | macroscopic lung injury (lung injury score) (hemorrhagic shock; after HS) | plasma MMP-9 and neutrophil derived pro-MMP-9 activity (hemorrhagic shock; post-HS plasma, gel zymography) | separation between the lamina propria and the mucosal epithelial layer (intestinal villi; jejunum, after 2 hrs ex vivo ischemia)
1 | NC[C@H]1CC[C@H](C(=O)O)CC1 [tranexamic acid] | able to preserve mucin 13 levels | prevented a significant decrease in occludin | tended to be lower | fewer regions with microhemorrhages | significantly reduced | maintained | did not prevent the villi destruction |  |  |  | 
2 | O=C[C@H](O)[C@@H](O)[C@H](O)[C@H](O)CO [Glucose, glucose] | preserved | preserved | tended to be lower | microhemorrhages most severely |  |  | attenuated | decreased irrespective of the presence of glucose | trend in reduction | significantly more activity compared to HS+SAL | still observed
